Assay results taken from article PMC9402538, “Rational design of a sensitivity-enhanced tracer for discovering efficient APC–Asef inhibitors” (Nature Communications, 2022).
Several values for one entry are separate records, joined by “and”; a condition that tells them apart may be missing. Equal values may be shown once. Entries after “also recorded” stand apart in the source; their conditions may differ. Where a SMILES comes first, the peptide text is derived from it. The star is where a group is joined. Benzoyl(4-OMe) = COc1ccc(C(=O)*)cc1

Test system: SW480 cells
Assay: xCELLigence RTCA-DP migration assay, SW480
Type: cell-based
Conditions: for Cell index: 50 μM
Method: Real-time cell migration was evaluated using the xCELLigence RTCA-DP system (Roche). Briefly, SW480 cells were serum-starved for 8 h, digested, and resuspended in serum-free medium. The wells in the upper chamber of CIM plate 16 were preequilibrated with 30 μL serum-free medium for 1 h and filled with 100 μL of 4 × 10^4 serum-starved SW480 cells per well. The wells in the lower chamber of CIM plate 16 were filled with complete medium. […] Cell index values were detected every 15 min throughout the procedure, and the data were collected and analyzed with RTCA software (version 2.3).

COc1ccc(C(=O)N[C@@H](C)C(=O)NCC(=O)N[C@@H](CCC(=O)O)C(=O)N[C@@H](CO)C(=O)N[C@@H](CC(C)C)C(=O)N[C@@H](Cc2ccc(O)cc2)C(=O)N[C@@H](CCC(=O)O)C(N)=O)cc1 [MAI-516] ({Benzoyl(4-OMe)}-AGESLYE-NH2)
Cell index (Time 2.86 h): 0.0858 and 0.0963 and 0.0628 and 0.0638
Cell index (Time 3.11 h): 0.0938 and 0.1001 and 0.0718 and 0.0644
Cell index (Time 25.38 h): 0.4156 and 0.4495 and 0.4015 and 0.3302
Cell index (Time 25.63 h): 0.4241 and 0.453 and 0.4081 and 0.333
Cell index (Time 25.88 h): 0.4262 and 0.4606 and 0.4096 and 0.3376
Cell index (Time 26.13 h): 0.4312 and 0.4671 and 0.4174 and 0.3414
Cell index (Time 26.38 h): 0.4401 and 0.4711 and 0.4224 and 0.35
Cell index (Time 26.63 h): 0.4427 and 0.4808 and 0.4256 and 0.3526
Cell index (Time 26.88 h): 0.4494 and 0.4864 and 0.4295 and 0.3559
Cell index (Time 27.13 h): 0.4537 and 0.4902 and 0.438 and 0.3614
Cell index (Time 27.38 h): 0.4561 and 0.4966 and 0.4408 and 0.3637
Cell index (Time 27.63 h): 0.459 and 0.5021 and 0.4433 and 0.3665
Cell index (Time 27.88 h): 0.4663 and 0.508 and 0.4508 and 0.3739
Cell index (Time 28.13 h): 0.4709 and 0.5146 and 0.4572 and 0.3773
Cell index (Time 28.38 h): 0.4763 and 0.5221 and 0.4622 and 0.3808
Cell index (Time 28.63 h): 0.4818 and 0.5253 and 0.4661 and 0.3892
Cell index (Time 28.88 h): 0.484 and 0.5373 and 0.4696 and 0.3897
Cell index (Time 29.13 h): 0.4908 and 0.5435 and 0.4752 and 0.3937
Cell index (Time 29.38 h): 0.4994 and 0.5497 and 0.4817 and 0.3996
Cell index (Time 29.63 h): 0.5038 and 0.5558 and 0.4857 and 0.4052
Cell index (Time 29.88 h): 0.5108 and 0.5614 and 0.4912 and 0.4104
Cell index (Time 30.13 h): 0.5142 and 0.5705 and 0.496 and 0.4144
Cell index (Time 30.38 h): 0.5237 and 0.5775 and 0.5022 and 0.4227
Cell index (Time 30.63 h): 0.5252 and 0.5853 and 0.505 and 0.4265
Cell index (Time 30.88 h): 0.5376 and 0.5896 and 0.5138 and 0.4332
cell migration (RTCA) (SW480, MAI-516): dose not inhibit the migration; also recorded: no apparent impact
